From ChEMBL document CHEMBL1201862, “PubChem BioAssay data set” (2004)
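Results reflect a 48-hour exposure of cells in 96-well plates to compound at five concentrations. At the GI50, growth is halved.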 The source made the active and inactive calls. Rule as the data show it: active = GI50 up to about 1.1 µM and inactive = higher.

Assays:
Test in all cases: growth of human tumour cells (NCI), 48 h
[1] = test system: COLO 205
[2] = test system: SF-268
[3] = test system: CAKI-1
[4] = test system: UO-31
[5] = test system: RXF 393
[6] = test system: NCI-H460
[7] = test system: SF-295
[8] = test system: NCI-H522
[9] = test system: SN12C
[10] = test system: HCT-15
[11] = test system: SNB-19
[12] = test system: DMS-114
[13] = test system: A549
[14] = test system: NCI-H226
[15] = test system: SNB-75
[16] = test system: SW-620
[17] = test system: M14
[18] = test system: DMS-273
[19] = test system: NCI-H23
[20] = test system: IGROV-1
[21] = test system: SK-MEL-2
[22] = test system: UACC-257
[23] = test system: LOX IMVI
[24] = test system: A498
[25] = test system: HOP-62
[26] = test system: HCT-116
[27] = test system: MOLT-4
[28] = test system: 786-0
[29] = test system: UACC-62
[30] = test system: OVCAR-5
[31] = test system: CCRF-CEM
[32] = test system: LXFL 529
[33] = test system: Malme-3M
[34] = test system: TK-10
[35] = test system: XF498
[36] = test system: DLD-1
[37] = test system: OVCAR-4
[38] = test system: HL-60
[39] = test system: OVCAR-3
[40] = test system: EKVX
[41] = test system: KM12
[42] = test system: U-251
[43] = test system: M19-MEL
[44] = test system: SF-539
[45] = test system: SNB-78
[46] = test system: SK-MEL-5
[47] = test system: HOP-92
[48] = test system: RPMI-8226
[49] = test system: HOP-18
[50] = test system: HT-29
[51] = test system: K562
[52] = test system: KM-20L2
[53] = test system: OVCAR-8
[54] = test system: SK-OV-3
[55] = test system: SR
[56] = test system: SK-MEL-28
[57] = test system: ACHN
[58] = test system: HCC 2998

SMILES: O=C1OC(=O)C2C1C1(c3ccccc3)OC2(c2ccccc2)c2c(Br)c(Br)c(Br)c(Br)c21 (stereo unspecified)
- GI50 [1]: > 100 µM (inactive)
- GI50 [2]: > 100 µM (inactive)
- GI50 [3]: > 100 µM (inactive)
- GI50 [4]: > 100 µM (inactive)
- GI50 [5]: 42.3 µM (inactive)
- GI50 [6]: > 100 µM (inactive)
- GI50 [7]: > 100 µM (inactive)
- GI50 [8]: > 100 µM (inactive)
- GI50 [9]: > 100 µM (inactive)
- GI50 [10]: > 100 µM
- GI50 [11]: > 100 µM (inactive)
- GI50 [12]: > 100 µM (inactive)
- GI50 [13]: > 100 µM (inactive)
- GI50 [14]: > 100 µM (inactive)
- GI50 [15]: > 100 µM (inactive)
- GI50 [16]: > 100 µM (inactive)
- GI50 [17]: > 100 µM (inactive)
- GI50 [18]: > 100 µM (inactive)
- GI50 [19]: > 100 µM (inactive)
- GI50 [20]: > 100 µM (inactive)
- GI50 [21]: > 100 µM (inactive)
- GI50 [22]: > 100 µM (inactive)
- GI50 [23]: > 100 µM (inactive)
- GI50 [24]: > 100 µM (inactive)
- GI50 [25]: > 100 µM (inactive)
- GI50 [26]: > 100 µM (inactive)
- GI50 [27]: > 100 µM (inactive)
- GI50 [28]: > 100 µM (inactive)
- GI50 [29]: > 100 µM (inactive)
- GI50 [30]: > 100 µM (inactive)
- GI50 [31]: > 100 µM (inactive)
- GI50 [32]: > 100 µM (inactive)
- GI50 [33]: > 100 µM (inactive)
- GI50 [34]: > 100 µM (inactive)
- GI50 [35]: > 100 µM (inactive)
- GI50 [36]: > 100 µM (inactive)
- GI50 [37]: > 100 µM (inactive)
- GI50 [38]: > 100 µM (inactive)
- GI50 [39]: > 100 µM (inactive)
- GI50 [40]: > 100 µM (inactive)
- GI50 [41]: > 100 µM (inactive)
- GI50 [42]: > 100 µM (inactive)
- GI50 [43]: > 100 µM (inactive)
- GI50 [44]: > 100 µM (inactive)
- GI50 [45]: 83.8 µM (inactive)
- GI50 [46]: > 100 µM (inactive)
- GI50 [47]: > 100 µM (inactive)
- GI50 [48]: > 100 µM (inactive)
- GI50 [49]: > 100 µM (inactive)
- GI50 [50]: > 100 µM (inactive)
- GI50 [51]: > 100 µM (inactive)
- GI50 [52]: > 100 µM (inactive)
- GI50 [53]: > 100 µM (inactive)
- GI50 [54]: 28.7 µM (inactive)

SMILES: CC#CC#C/C=C1\C=CC2(OC=CC2O)O1 (stereo unspecified)
- GI50 [1]: 3.28 µM (inactive)
- GI50 [2]: > 23.3 µM (inactive)
- GI50 [3]: 14.8 µM (inactive)
- GI50 [4]: 12.2 µM (inactive)
- GI50 [5]: 8.55 µM (inactive)
- GI50 [6]: > 23.3 µM (inactive)
- GI50 [7]: > 23.3 µM (inactive)
- GI50 [8]: 5.65 µM (inactive)
- GI50 [9]: > 23.3 µM (inactive)
- GI50 [10]: 7.4 µM
- GI50 [11]: > 23.3 µM (inactive)
- GI50 [12]: 7.38 µM (inactive)
- GI50 [13]: 13.1 µM (inactive)
- GI50 [14]: > 15.8 µM (inactive)
- GI50 [15]: > 19.1 µM (inactive)
- GI50 [55]: > 12.7 µM (inactive)
- GI50 [16]: 8.28 µM (inactive)
- GI50 [17]: > 17.8 µM (inactive)
- GI50 [18]: > 23.3 µM (inactive)
- GI50 [19]: > 20.3 µM (inactive)
- GI50 [20]: > 16.7 µM (inactive)
- GI50 [21]: > 17.8 µM (inactive)
- GI50 [22]: 16 µM (inactive)
- GI50 [23]: 11.9 µM (inactive)
- GI50 [25]: > 23.3 µM (inactive)
- GI50 [26]: 8.04 µM (inactive)
- GI50 [27]: 10.5 µM (inactive)
- GI50 [28]: > 16 µM (inactive)
- GI50 [29]: 9.59 µM (inactive)
- GI50 [56]: 13.3 µM (inactive)
- GI50 [30]: 4.23 µM (inactive)
- GI50 [31]: > 11.3 µM (inactive)
- GI50 [32]: 6.24 µM (inactive)
- GI50 [33]: 10.4 µM (inactive)
- GI50 [34]: > 23.3 µM (inactive)
- GI50 [35]: 9.4 µM (inactive)
- GI50 [36]: 8.93 µM (inactive)
- GI50 [37]: 8.26 µM (inactive)
- GI50 [38]: > 14.1 µM (inactive)
- GI50 [39]: 7.52 µM (inactive)
- GI50 [40]: > 9.86 µM (inactive)
- GI50 [57]: > 23.3 µM (inactive)
- GI50 [41]: 3.32 µM (inactive)
- GI50 [42]: > 20.7 µM (inactive)
- GI50 [43]: 15.3 µM (inactive)
- GI50 [44]: > 14.9 µM (inactive)
- GI50 [45]: 4.93 µM (inactive)
- GI50 [46]: > 12.9 µM (inactive)
- GI50 [47]: 7.13 µM (inactive)
- GI50 [48]: 13.4 µM (inactive)
- GI50 [49]: 4.79 µM (inactive)
- GI50 [50]: 7.91 µM (inactive)
- GI50 [51]: 11.6 µM (inactive)
- GI50 [52]: 3.94 µM (inactive)
- GI50 [53]: 14.3 µM (inactive)
- GI50 [58]: > 16.2 µM (inactive)
- GI50 [54]: > 23.3 µM (inactive)
